Test results from patent publication US20240279236A1, “COMPOUNDS AND METHODS OF TREATING TUBERCULOSIS” (Fimbrion Therapeutics, Inc., priority 2021, published 2024).

Tested on: WT Mtb Erdman strain
Assay: Microplate Alamar Blue Assay (MABA), Mtb growth inhibition
Format: cell-based, Mycobacterium tuberculosis
Details: Mycobacterium tuberculosis, ERDMAN, 168 h, Middlebrook 7H9 media, 7 days at 37° C. in 5% CO2

SMILES	IC50
CSc1nc(NCCCc2ccc(-c3ccc(Cl)cc3)cc2)c2cc(C)sc2n1 [Example 425, N-(3-(4′-chloro-[1,1′-biphenyl]-4-yl)propyl)-6-methyl-2-(methylthio)thieno[2,3-d]pyrimidin-4-amine]	17 nM
Cc1cc2c(NCCCc3ccc(-c4ccc(OC(F)(F)F)cc4)cc3)nc(-c3ccncn3)nc2s1 [Example 426, 6-methyl-2-(pyrimidin-4-yl)-N-(3-(4′-(trifluoromethoxy)-[1,1′-biphenyl]-4-yl)propyl)thieno[2,3-d]pyrimidin-4-amine]	76 nM
Cc1cc2c(NCCCc3ccc(-c4ccc(C#N)cc4)cc3)nc(-c3ccoc3)nc2s1 [Example 427, 4′-(3-((2-(furan-3-yl)-6-methylthieno[2,3-d]pyrimidin-4-yl)amino)propyl)-[1,1′-biphenyl]-4-carbonitrile]	16 nM
Cc1cc2c(NCCCc3ccc(-c4ccc(C(F)(F)F)nc4)cc3)nc(-c3ccoc3)nc2s1 [Example 428, 2-(furan-3-yl)-6-methyl-N-(3-(4-(6-(trifluoromethyl)pyridin-3-yl)phenyl)propyl)thieno[2,3-d]pyrimidin-4-amine]	20 nM
Cc1cc2c(NCCCc3ccc(-c4ccc(C5CC5)cc4)cc3)nc(-c3ccoc3)nc2s1 [Example 429, N-(3-(4′-cyclopropyl-[1,1′-biphenyl]-4-yl)propyl)-2-(furan-3-yl)-6-methylthieno[2,3-d]pyrimidin-4-amine]	20 nM
CSc1nc(NCCCc2ccc(-c3ccc(C4CC4)cc3)cc2)c2cc(C)sc2n1 [Example 430, N-(3-(4′-cyclopropyl-[1,1′-biphenyl]-4-yl)propyl)-6-methyl-2-(methylthio)thieno[2,3-d]pyrimidin-4-amine]	18 nM
CSc1nc(NCCCc2ccc(-c3ccc(C(F)(F)F)nc3)cc2)c2cc(C)sc2n1 [Example 431, 6-methyl-2-(methylthio)-N-(3-(4-(6-(trifluoromethyl)pyridin-3-yl)phenyl)propyl)thieno[2,3-d]pyrimidin-4-amine]	20 nM
CSc1nc(NCCCc2ccc(-c3ccc(C#N)cc3)cc2)c2cc(C)sc2n1 [Example 432, 4′-(3-((6-methyl-2-(methylthio)thieno[2,3-d]pyrimidin-4-yl)amino)propyl)-[1,1′-biphenyl]-4-carbonitrile]	14 nM
Cc1cc2c(NCCCc3ccc(-c4ccc(OC(F)(F)F)cc4)cc3)nc(Cl)nc2s1 [Example 433, 2-chloro-6-methyl-N-(3-(4′-(trifluoromethoxy)-[1,1′-biphenyl]-4-yl)propyl)thieno[2,3-d]pyrimidin-4-amine]	54 nM
Cc1cc2c(NCCCc3ccc(-c4ccc(Cl)cc4)cc3)nc(-c3ccoc3)nc2s1 [Example 434, N-(3-(4′-chloro-[1,1′-biphenyl]-4-yl)propyl)-2-(furan-3-yl)-6-methylthieno[2,3-d]pyrimidin-4-amine]	10 nM
Cc1cc2c(NCCCc3ccc(-c4ccc(Cl)cc4)cc3)nc(Cl)nc2s1 [Example 435, 2-chloro-N-(3-(4′-chloro-[1,1′-biphenyl]-4-yl)propyl)-6-methylthieno[2,3-d]pyrimidin-4-amine]	30 nM
Cc1cc2c(NCCCc3ccc(-c4ccc(Cl)cc4)cc3)nc(-c3ccc(F)cc3)nc2s1 [Example 436, N-(3-(4′-chloro-[1,1′-biphenyl]-4-yl)propyl)-2-(4-fluorophenyl)-6-methylthieno[2,3-d]pyrimidin-4-amine]	220 nM
Cc1cc2c(NCCCc3ccc(-c4ccc(C5CC5)cc4)cc3)nc(Cl)nc2s1 [Example 437, 2-chloro-N-(3-(4′-cyclopropyl-[1,1′-biphenyl]-4-yl)propyl)-6-methylthieno[2,3-d]pyrimidin-4-amine]	85 nM
Cc1cc2c(NCCCc3ccc(-c4ccc(C(F)(F)F)nc4)cc3)nc(Cl)nc2s1 [Example 438, 2-chloro-6-methyl-N-(3-(4-(6-(trifluoromethyl)pyridin-3-yl)phenyl)propyl)thieno[2,3-d]pyrimidin-4-amine]	140 nM
Cc1cc2c(NCCCc3ccc(-c4ccc(C#N)cc4)cc3)nc(Cl)nc2s1 [Example 439, 4′-(3-((2-chloro-6-methylthieno[2,3-d]pyrimidin-4-yl)amino)propyl)-[1,1′-biphenyl]-4-carbonitrile]	93 nM
Cc1cc2c(NCCCc3ccc(-c4ccc(OC(F)(F)F)cc4)cc3)nc(-c3cccn3C)nc2s1 [Example 440, 6-methyl-2-(1-methyl-1H-pyrrol-2-yl)-N-(3-(4′-(trifluoromethoxy)-[1,1′-biphenyl]-4-yl)propyl)thieno[2,3-d]pyrimidin-4-amine]	8100 nM
Cc1cc2c(NCCCc3ccc(-c4ccc(OC(F)(F)F)cc4)cc3)nc(-c3ccn(C)c3)nc2s1 [Example 441, 6-methyl-2-(1-methyl-1H-pyrrol-3-yl)-N-(3-(4′-(trifluoromethoxy)-[1,1′-biphenyl]-4-yl)propyl)thieno[2,3-d]pyrimidin-4-amine]	49 nM

SMILES	IC50
Cc1cc2c(NCCCc3ccc(-c4ccc(OC(F)(F)F)cc4)cc3)nc(-c3cnc[nH]3)nc2s1 [Example 442, 2-(1H-imidazol-5-yl)-6-methyl-N-(3-(4′-(trifluoromethoxy)-[1,1′-biphenyl]-4-yl)propyl)thieno[2,3-d]pyrimidin-4-amine]	230 nM
Cc1cc2c(NCCCc3ccc(-c4ccc(OC(F)(F)F)cc4)cc3)nc(-c3cn(C)cn3)nc2s1 [Example 443, 6-methyl-2-(1-methyl-1H-imidazol-4-yl)-N-(3-(4′-(trifluoromethoxy)-[1,1′-biphenyl]-4-yl)propyl)thieno[2,3-d]pyrimidin-4-amine]	300 nM
Cc1cc2c(NCCCc3ccc(-c4ccc(OC(F)(F)F)cc4)cc3)nc(-c3cncn3C)nc2s1 [Example 444, 6-methyl-2-(1-methyl-1H-imidazol-5-yl)-N-(3-(4′-(trifluoromethoxy)-[1,1′-biphenyl]-4-yl)propyl)thieno[2,3-d]pyrimidin-4-amine]	5500 nM
Cc1nc(NCCCc2ccc(-c3ccc(OC(F)(F)F)cc3)cc2)c2cc(C)sc2n1 [Example 445, 2,6-dimethyl-N-(3-(4′-(trifluoromethoxy)-[1,1′-biphenyl]-4-yl)propyl)thieno[2,3-d]pyrimidin-4-amine]	160 nM
Cc1cc2c(NCCCc3ccc(-c4ccc(OC(F)(F)F)cc4)cc3)nc(-c3ncon3)nc2s1 [Example 446, 6-methyl-2-(1,2,4-oxadiazol-3-yl)-N-(3-(4′-(trifluoromethoxy)-[1,1′-biphenyl]-4-yl)propyl)thieno[2,3-d]pyrimidin-4-amine]	96 nM
Cc1cc2c(NCCCc3ccc(-c4ccc(OC(F)(F)F)cc4)cc3)nc(-c3cnn(C)c3)nc2s1 [Example 447, 6-methyl-2-(1-methyl-1H-pyrazol-4-yl)-N-(3-(4′-(trifluoromethoxy)-[1,1′-biphenyl]-4-yl)propyl)thieno[2,3-d]pyrimidin-4-amine]	57 nM
CCSc1nc(NCCCc2ccc(-c3ccc(OC(F)(F)F)cc3)cc2)c2cc(C)sc2n1 [Example 448, 2-(ethylthio)-6-methyl-N-(3-(4′-(trifluoromethoxy)-[1,1′-biphenyl]-4-yl)propyl)thieno[2,3-d]pyrimidin-4-amine]	44 nM
Cc1cc2c(NCCCc3ccc(-c4ccc(OC(F)(F)F)cc4)cc3)nc(-c3c(C)noc3C)nc2s1 [Example 449, 2-(3,5-dimethylisoxazol-4-yl)-6-methyl-N-(3-(4′-(trifluoromethoxy)-[1,1′-biphenyl]-4-yl)propyl)thieno[2,3-d]pyrimidin-4-amine]	> 1000 nM
Cc1cc2c(NCCCc3ccc(-c4ccc(OC(F)(F)F)cc4)cc3)nc(-c3ccn(C)n3)nc2s1 [Example 450, 6-methyl-2-(1-methyl-1H-pyrazol-3-yl)-N-(3-(4′-(trifluoromethoxy)-[1,1′-biphenyl]-4-yl)propyl)thieno[2,3-d]pyrimidin-4-amine]	490 nM
Cc1cc2c(NCCCc3ccc(-c4ccc(OC(F)(F)F)cc4)cc3)nc(-n3ccnc3)nc2s1 [Example 451, 2-(1H-imidazol-1-yl)-6-methyl-N-(3-(4′-(trifluoromethoxy)-[1,1′-biphenyl]-4-yl)propyl)thieno[2,3-d]pyrimidin-4-amine]	1800 nM
Cc1cc2c(NCCCc3ccc(-c4ccc(OC(F)(F)F)cc4)cc3)nc(C3CC3)nc2s1 [Example 452]	76 nM
Cc1cc2c(NCCCc3ccc(-c4ccc(OC(F)(F)F)cc4)cc3)nc(C3CCC3)nc2s1 [Example 453, 2-cyclobutyl-6-methyl-N-(3-(4′-(trifluoromethoxy)-[1,1′-biphenyl]-4-yl)propyl)thieno[2,3-d]pyrimidin-4-amine]	58 nM
Cc1cc2c(NCCCc3ccc(-c4ccc(OC(F)(F)F)cc4)cc3)nc(-c3cn[nH]c3)nc2s1 [Example 454, 6-methyl-2-(1H-pyrazol-4-yl)-N-(3-(4′-(trifluoromethoxy)-[1,1′-biphenyl]-4-yl)propyl)thieno[2,3-d]pyrimidin-4-amine]	> 1000 nM
Cc1cc2c(NCCCc3ccc(-c4ccc(OC(F)(F)F)cc4)cc3)nc(C(C)C)nc2s1 [Example 455, 2-isopropyl-6-methyl-N-(3-(4′-(trifluoromethoxy)-[1,1′-biphenyl]-4-yl)propyl)thieno[2,3-d]pyrimidin-4-amine]	56 nM
Cc1cc2c(NCCCc3ccc(-c4ccc(OC(F)(F)F)cc4)cc3)nc(-c3ccoc3C)nc2s1 [Example 456, 6-methyl-2-(2-methylfuran-3-yl)-N-(3-(4′-(trifluoromethoxy)-[1,1′-biphenyl]-4-yl)propyl)thieno[2,3-d]pyrimidin-4-amine]	> 10000 nM
Cc1nc2c(NCCCc3ccc(-c4cnc(F)cn4)cc3)nc(-c3ncon3)nc2s1 [Example 457, N-(3-(4-(5-fluoropyrazin-2-yl)phenyl)propyl)-2-methyl-5-(1,2,4-oxadiazol-3-yl)thiazolo[5,4-d]pyrimidin-7-amine]	> 1000 nM
CSc1nc(NCCCc2ccc(-c3ccc(C(F)(F)F)cn3)cc2)c2cc(C)sc2n1 [Example 458, 6-methyl-2-(methylthio)-N-(3-(4-(5-(trifluoromethyl)pyridin-2-yl)phenyl)propyl)thieno[2,3-d]pyrimidin-4-amine]	14 nM
